The values that follow are results of earlier work, collected in patent US20160354391A1, “USE IN SINGLE PILL/TABLET/CAPSULE OF MINOCYCLINE, FLUCONAZOLE AND ATORVASTATIN IN THE TREATMENT OF MULTIPLE SCLEROSIS” (priority 2014, published 2016).

The conditions of data set [1]: in vivo.

`C/C(O)=C(\C#N)C(=O)Nc1ccc(C(F)(F)F)cc1` [Teriflunomide]: in data set [1], the elimination time result is on record as “up to 2 years”.

On to Alemtuzumab, for which the “patients who develop thyroid autoimmune diseases” value is “approximately 40%”.
